Assay results published in PubChem BioAssay AID248 (DTP/NCI, 2004).
Where “and” joins values, the source holds several entries; their conditions need not be identical. Equal entries are not always repeated. Inconclusive results and toxic doses are left out. Cut-off read from the data, not from the text of the source: active = T/C of 150% or more; inactive = T/C below 125%.

Tested on: L1210 leukemia ip in BDF1 mice, survival T/C
Assay: NCI In Vivo Anticancer Drug Screen. Data for tumor model L1210 Leukemia (intraperitoneal) in B6D2F1 (BDF1) mice
Details: endpoint: mean survival time, higher = longer survival
Method in brief: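 Antitumor effect is assessed in tumor-bearing animals. Survival in the compound arm is compared with a vehicle-dosed control arm and expressed as their quotient.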

[1] = dose: 50.0 mg/kg/injection, schedule: Q01DX001 (ip), vehicle: carboxymethylcellulose (CMC)
[2] = dose: 50.0 mg/kg/injection, schedule: Q04DX003 (ip), vehicle: saline with Tween-80
[3] = dose: 100.0 mg/kg/injection, schedule: Q01DX001 (ip), vehicle: carboxymethylcellulose (CMC)
[4] = dose: 100.0 mg/kg/injection, schedule: Q04DX003 (ip), vehicle: saline with Tween-80
[5] = dose: 200.0 mg/kg/injection, schedule: Q01DX001 (ip), vehicle: carboxymethylcellulose (CMC)
[6] = dose: 50.0 mg/kg/injection, schedule: Q01DX009 (ip), vehicle: saline with Tween-80
[7] = dose: 100.0 mg/kg/injection, schedule: Q01DX009 (ip), vehicle: saline with Tween-80
[8] = dose: 200.0 mg/kg/injection, schedule: Q01DX009 (ip), vehicle: saline with Tween-80

Measured: T/C

CN(C)N=Nc1ccccc1
inactive: dose: 4.0 mg/kg/injection, schedule: Q03HX008 (ip), vehicle: other 102 % of control | dose: 4.0 mg/kg/injection, schedule: Q03HX016 (ip), vehicle: other 101 % of control | dose: 4.0 mg/kg/injection, schedule: Q03HX024 (ip), vehicle: other 105 % of control | dose: 8.0 mg/kg/injection, schedule: Q03HX008 (ip), vehicle: other 103 % of control | dose: 8.0 mg/kg/injection, schedule: Q03HX016 (ip), vehicle: other 103 % of control | dose: 8.0 mg/kg/injection, schedule: Q03HX024 (ip), vehicle: other 108 % of control | dose: 12.5 mg/kg/injection, schedule: Q04DX003 (ip), vehicle: saline with Tween-80 102 % of control | dose: 15.0 mg/kg/injection, schedule: Q01DX015 (ip), vehicle: carboxymethylcellulose (CMC) 104 % of control and 106 % of control and 107 % of control | dose: 16.0 mg/kg/injection, schedule: Q01DX005 (iv), vehicle: other 111 % of control | dose: 16.0 mg/kg/injection, schedule: Q01DX009 (ip), vehicle: other 103 % of control | dose: 16.0 mg/kg/injection, schedule: Q01DX009 (sc), vehicle: other 107 % of control | dose: 16.0 mg/kg/injection, schedule: Q03HX008 (ip), vehicle: other 114 % of control | dose: 16.0 mg/kg/injection, schedule: Q03HX016 (ip), vehicle: other 117 % of control | dose: 18.0 mg/kg/injection, schedule: Q01DX015 (ip), vehicle: carboxymethylcellulose (CMC) 104 % of control | dose: 25.0 mg/kg/injection, schedule: Q04DX003 (ip), vehicle: saline with Tween-80 123 % of control | dose: 26.0 mg/kg/injection, schedule: Q01DX015 (ip), vehicle: carboxymethylcellulose (CMC) 108 % of control | dose: 31.25 mg/kg/injection, schedule: Q01DX001 (ip), vehicle: saline with Tween-80 108 % of control | dose: 32.0 mg/kg/injection, schedule: Q01DX001 (ip), vehicle: other 109 % of control | dose: 32.0 mg/kg/injection, schedule: Q01DX001 (sc), vehicle: other 102 % of control | dose: 32.0 mg/kg/injection, schedule: Q01DX005 (iv), vehicle: other 109 % of control | dose: 32.0 mg/kg/injection, schedule: Q01DX009 (ip), vehicle: other 122 % of control | dose: 32.0 mg/kg/injection, schedule: Q01DX009 (sc), vehicle: other 114 % of control | dose: 32.0 mg/kg/injection, schedule: Q03HX024 (ip), vehicle: other 120 % of control | dose: 32.0 mg/kg/injection, schedule: Q04DX003 (ip), vehicle: other 102 % of control | dose: 32.0 mg/kg/injection, schedule: Q04DX003 (ip), vehicle: saline 117 % of control | dose: 32.0 mg/kg/injection, schedule: Q08DX002 (ip), vehicle: other 107 % of control | [1] 97 % of control | [2] 115 % of control | dose: 60.0 mg/kg/injection, schedule: Q01DX015 (ip), vehicle: carboxymethylcellulose (CMC) 119 % of control and 88 % of control | dose: 62.5 mg/kg/injection, schedule: Q01DX001 (ip), vehicle: saline with Tween-80 111 % of control | dose: 64.0 mg/kg/injection, schedule: Q01DX001 (ip), vehicle: other 112 % of control | dose: 64.0 mg/kg/injection, schedule: Q01DX001 (sc), vehicle: other 102 % of control | dose: 64.0 mg/kg/injection, schedule: Q01DX009 (ip), vehicle: other 120 % of control | dose: 64.0 mg/kg/injection, schedule: Q01DX009 (oral), vehicle: other 122 % of control | dose: 64.0 mg/kg/injection, schedule: Q04DX003 (ip), vehicle: other 114 % of control | dose: 64.0 mg/kg/injection, schedule: Q08DX002 (ip), vehicle: other 101 % of control | [3] 93 % of control | [4] 105 % of control and 117 % of control | dose: 128.0 mg/kg/injection, schedule: Q01DX001 (ip), vehicle: other 123 % of control | dose: 128.0 mg/kg/injection, schedule: Q01DX001 (oral), vehicle: other 109 % of control | dose: 128.0 mg/kg/injection, schedule: Q01DX001 (sc), vehicle: other 112 % of control | dose: 128.0 mg/kg/injection, schedule: Q01DX009 (oral), vehicle: other 122 % of control | [5] 123 % of control | dose: 256.0 mg/kg/injection, schedule: Q01DX001 (sc), vehicle: other 121 % of control
110 % of control and 207 % of control: dose: 30.0 mg/kg/injection, schedule: Q01DX015 (ip), vehicle: carboxymethylcellulose (CMC)

CCSCC1OC(n2ncc3c(N)ncnc32)C(O)C1O (stereo unspecified)
inactive: dose: 100.0 mg/kg/injection, schedule: Q01DX001 (ip), vehicle: Klucel (hydroxypropylcellulose) (HPC) 98 % of control | dose: 200.0 mg/kg/injection, schedule: Q01DX001 (ip), vehicle: Klucel (hydroxypropylcellulose) (HPC) 93 % of control | dose: 400.0 mg/kg/injection, schedule: Q01DX001 (ip), vehicle: Klucel (hydroxypropylcellulose) (HPC) 97 % of control

NC(=S)N/N=C/c1ccccc1S(=O)(=O)O
inactive: dose: 100.0 mg/kg/injection, schedule: Q01DX001 (ip), vehicle: saline 96 % of control | dose: 200.0 mg/kg/injection, schedule: Q01DX001 (ip), vehicle: saline 94 % of control | dose: 400.0 mg/kg/injection, schedule: Q01DX001 (ip), vehicle: saline 102 % of control

N#CCN1CCCCCC1
inactive: dose: 5.0 mg/kg/injection, schedule: Q01DX009 (ip), vehicle: Klucel (hydroxypropylcellulose) (HPC) 102 % of control | dose: 10.0 mg/kg/injection, schedule: Q01DX009 (ip), vehicle: Klucel (hydroxypropylcellulose) (HPC) 98 % of control | dose: 10.0 mg/kg/injection, schedule: Q04DX003 (ip), vehicle: Klucel (hydroxypropylcellulose) (HPC) 98 % of control | dose: 20.0 mg/kg/injection, schedule: Q04DX003 (ip), vehicle: Klucel (hydroxypropylcellulose) (HPC) 91 % of control

N=C1c2ccccc2-c2nc3ccccc3c(=O)n21
inactive: dose: 100.0 mg/kg/injection, schedule: Q04DX002 (ip), vehicle: saline 86 % of control | dose: 200.0 mg/kg/injection, schedule: Q04DX002 (ip), vehicle: saline 93 % of control | dose: 400.0 mg/kg/injection, schedule: Q04DX002 (ip), vehicle: saline 89 % of control

CCOC(=O)Cc1cc(=O)[nH][nH]c1=O
inactive: dose: 150.0 mg/kg/injection, schedule: Q04DX002 (ip), vehicle: Klucel (hydroxypropylcellulose) (HPC) 95 % of control | dose: 300.0 mg/kg/injection, schedule: Q04DX002 (ip), vehicle: Klucel (hydroxypropylcellulose) (HPC) 95 % of control

CC(C)CN(C)N=Nc1ccccc1C(=O)NN
inactive: [6] 100 % of control | [2] 98 % of control | [7] 98 % of control | [4] 98 % of control | [8] 121 % of control | dose: 200.0 mg/kg/injection, schedule: Q04DX003 (ip), vehicle: saline with Tween-80 103 % of control

Cc1cccc(NC(=O)NCC(=O)N/N=C/c2cccc([N+](=O)[O-])c2)n1
inactive: [6] 93 % of control | [7] 90 % of control | [8] 88 % of control

C1OC1C[N+]12CN3CN(CN(C3)C1)C2 (stereo unspecified)
inactive: dose: 100.0 mg/kg/injection, schedule: Q01DX005 (ip), vehicle: saline 92 % of control | dose: 100.0 mg/kg/injection, schedule: Q01DX009 (ip), vehicle: saline 109 % of control | dose: 200.0 mg/kg/injection, schedule: Q01DX005 (ip), vehicle: saline 113 % of control | dose: 200.0 mg/kg/injection, schedule: Q01DX009 (ip), vehicle: saline 106 % of control | dose: 400.0 mg/kg/injection, schedule: Q01DX005 (ip), vehicle: saline 103 % of control

CCN(CC)c1ccc(N=Nc2ccccc2)cc1
inactive: [1] 93 % of control | [3] 86 % of control | [5] 96 % of control | dose: 400.0 mg/kg/injection, schedule: Q01DX001 (ip), vehicle: carboxymethylcellulose (CMC) 98 % of control

O=C1CC23CCC(=O)C2(CC3)C1 (stereo unspecified)
inactive: dose: 75.0 mg/kg/injection, schedule: Q04DX002 (ip), vehicle: saline 103 % of control | dose: 150.0 mg/kg/injection, schedule: Q04DX002 (ip), vehicle: saline 103 % of control | dose: 300.0 mg/kg/injection, schedule: Q04DX002 (ip), vehicle: saline 100 % of control
